What all share (assay type): cell-based
Assay [1] has as its system RPMI. myeloma cell line bearing KRas^G12A oncogenic mutation. The assay can be described thus: Antiproliferative MTS assay, RPMI cells. The conditions noted are these: 72 h, compounds 1-23 and 47-52 median of experiments, 24-46 estimations and/or preliminary results, read-out: IC50 values: cell proliferation inhibition, RPMI. The method, then: Cell line #4: RPMI. myeloma cell line bearing KRas^G12A oncogenic mutation
(§1) Cell lines were cultured in DMEM or RPMI-1640 supplemented with FBS 10%. In order to assess the antiproliferative effect of compounds, cells were seeded at a density of 1.8×10^3, 6.2×10^3, 7.8×10^3, 21×10^3 and 2×10^3 cells/cm^2, respectively, in tissue culture microplates and were incubated in humidified atmosphere at 5% CO2. 24 h later, compounds dissolved in DMSO 100% were added for different final concentrations ranging between 0.1 and 50 μM for a final DMSO concentration of 0.5% and the plates were incubated for another 72 h. After incubation, proliferation was quantified using CellTiter 96® Aqueous Non-Radioactive Cell Proliferation Assay-MTS (Promega #G5421) following manufacturer instructions. Amount of 490 nm absorbance is directly proportional to the number of living cells. Absorbance was recorded with a BMG Fluostar Optima Microplate Reader and normalized to control with vehicle.

The test system of assay [2] is PANC-1. epithelioid carcinoma of the pancreas cell line bearing KRas^G12D oncogenic mutation. The assay can be described thus: Antiproliferative MTS assay, PANC-1 cells. The settings on record: Homo sapiens, PANC-1, 72 h, compounds 1-23 and 47-52 median of experiments, 24-46 estimations and/or preliminary results, read-out: IC50 values: cell proliferation inhibition, Panc-1. The method, then: Cell line #3: PANC-1. epithelioid carcinoma of the pancreas cell line bearing KRas^G12D oncogenic mutation
as §1

The next assay concerns NIH-H358 Cell Line. The assay can be described thus: 3D CellTiter-Glo cell viability assay. The conditions noted are these: 168 h, NIH-H358 cells in 0.65% methylcellulose, 7 days' compound treatment. As to the method:
Example 5: Efficacy Testing in 3D Viability Assay for NIH-H358 Cell Line
The protocol to perform 3D CellTiter-Glo™ cell viability assay is as follows:
Day—1: Cell plating • Adjust cell concentrations to 1×10^5 cells/ml with respective medium. (Cell concentration is adjusted according to data base or density optimization assay). Mix 3.5 mL of cell suspension 6.5 mL of 1% methylcellulose. Mix and wait for bubbles to disperse before pipetting. This step yields 10 ml of cell suspension in 0.65% methylcellulose solution. Add 99.5 μL cell suspensions to 96-well plates according to plate map with final cell density. • Two duplicate plates will be set up. One is for day 0 reading (T0) and the other will be cultured in incubator for reading at the end point. • Incubate the plates overnight in humidified incubator at 37° C. with 5% CO2.
Day 0: T0 plate reading and compound treatment • Take T0 plate, add 0.5 μL culture medium to each well for T0 reading. • Add 100 μl CellTiter-Glo® Reagent to each well. • Mix contents for 2 minutes on an orbital shaker to facilitate cell lysis. • Allow the plate to incubate at room temperature for 10 minutes to stabilize luminescent signal. • Record luminescence using EnVision Multi Label Reader. • Dilute the test articles at the concentration indicated at Test Articles Dilution. Add 0.5 μL of each 200× compound working solutions according to plate inoculation map.
Day 7: Plate reading of 7 days' compound treatment • Add 100 μL CellTiter-Glo® Reagent to each well. • Mix contents for 2 minutes on an orbital shaker to facilitate cell lysis. • Allow the plate to incubate at room temperature for 10 minutes to stabilize luminescent signal. • Record luminescence using EnVision Multi Label Reader.
A general note: Cellular ATP, detected with luciferase, serves as a proxy for viable cell number.

For assay [3], the system named is A549. Lung carcinoma cell line bearing KRas^G12S oncogenic mutation. Nature of the assay: Antiproliferative MTS assay, A549 cells. The conditions noted are these: Homo sapiens, A549, 72 h, compounds 1-23 and 47-52 median of experiments, 24-46 estimations and/or preliminary results, read-out: IC50 values: cell proliferation inhibition, A549. The method, then:
Cell line #1: A549. Lung carcinoma cell line bearing KRas^G12S oncogenic mutation
as §1

Assay [4] deals with H358. non-small cell lung cancer line bearing KRas^G12C oncogenic mutation. The assay can be described thus: Antiproliferative MTS assay, H358 cells. The settings on record: Homo sapiens, NCI-H358, 72 h, compounds 1-23, 47-52 and Reference Example 1 median of experiments, 24-46 estimations and/or preliminary results, read-out: IC50 values: cell proliferation inhibition, H358. The method, then:
Cell line #2: H358. non-small cell lung cancer line bearing KRas^G12C oncogenic mutation
as §1

For the compound `COc1ccc(C2c3cc(OCCc4ccc(OC)c(N)c4)c(OC)cc3CCN2C(=O)N[C@@H](C)C(F)(F)F)c(C)c1` (stereo partly drawn) [Compound 50], the IC50 is 150 nM in assay [1]; 200 nM in assay [2]; 767 nM with NIH-H358 Cell Line; above 2000 nM in assay [3]; 500 nM in assay [4].
Take `COc1ccc(CCOc2cc3c(cc2OC)CCN(C(=O)NCc2cocn2)C3c2ccc(C)cc2C)cc1O` (stereo not drawn) [Compound 2]: the IC50 was 200 nM in assay [1]; 300 nM in assay [2]; 299 nM in the assay on NIH-H358 Cell Line; 1000 nM in assay [3]; 400 nM in assay [4].
The matching figures for `CCNC(=O)N1CCc2cc(OC)c(OCCc3ccc(F)c(N)c3)cc2C1c1ccc(C)cc1C` (stereo not drawn) [Compound 7]: 600 nM, 800 nM, 531 nM, 600 nM and 900 nM.
As to `COc1cc(O)cc(CCOc2cc3c(cc2OC)CCN(C(=O)NCc2cocn2)C3c2ccc(C)cc2C)c1` (stereo not drawn) [Compound 1], the IC50 in assay [1] is 1500 nM; in assay [2], 2000 nM; in the assay with NIH-H358 Cell Line it was above 1000 nM; in assay [3] it was 2000 nM; in assay [4] it was 1500 nM.
Take `COc1ccc(CCOc2cc3c(cc2OC)CCN(C(=O)NCc2cocn2)C3c2ccc(C)cc2C)cc1N` (stereo not drawn) [Compound 4]: the IC50 in assay [1] is 300 nM; in assay [2], 400 nM; in the assay with NIH-H358 Cell Line it was 556 nM; in assay [3], 900 nM; in assay [4], 200 nM.
For the compound `CCNC(=O)N1CCc2cc(OC)c(OCCc3ccc(OC)c(N)c3)cc2C1c1ccc(Br)cc1C` (stereo not drawn) [Compound 51], the IC50 in assay [1] is above 1000 nM; in assay [2] it was 70 nM; in the assay on NIH-H358 Cell Line, 178 nM; in assay [3], 200 nM; in assay [4], 150 nM.
For `COc1ccc(CCOc2cc3c(cc2OC)CCN(C(=O)N[C@H](C)C(F)(F)F)C3c2ccc(C)cc2C)cc1N` (stereo partly drawn) [Compound 47], the IC50 is 400 nM in assay [1]; above 1000 nM in assay [2]; 963 nM with NIH-H358 Cell Line; above 2000 nM in assay [3]; 600 nM in assay [4].
The like results for `CCNC(=O)N1CCc2cc(OC)c(OCCc3ccc(OC)c(N)c3)cc2C1c1ccc(N(C)C)cc1C` (stereo not drawn) [Compound 52] were, in that order, 200 nM, 1000 nM, above 1000 nM, above 2000 nM and 1000 nM.
Regarding `CCNC(=O)N1CCc2cc(OC)c(OCCc3ccc(OC)c(O)c3)cc2C1c1ccc(C)cc1C` (stereo not drawn) [Compound 5, 1-(2,4-dimethylphenyl)-N-ethyl-7-(3-hydroxy-4-methoxyphenethoxy)-6-methoxy-3,4-dihydroisoquinoline-2(1H)-carboxamide], the IC50 was 100 nM in assay [1]; 200 nM in assay [2]; 533 nM with NIH-H358 Cell Line; 700 nM in assay [3]; 100 nM in assay [4].
As to `COc1ccc(CCOc2cc3c(cc2OC)CCN(C(=O)N[C@@H](C)C(F)(F)F)C3c2ccc(C)cc2C)cc1N` (stereo partly drawn) [Compound 48], the IC50 in assay [1] is 40 nM; in assay [2], 500 nM; in the assay with NIH-H358 Cell Line, 371 nM; in assay [3] it was above 1000 nM; in assay [4], 100 nM.
The like results for `CCNC(=O)N1CCc2cc(OC)c(OCCc3ccc(N)c(OC)c3)cc2C1c1ccc(C)cc1C` (stereo not drawn) [Compound 9, 7-(4-amino-3-methoxyphenethoxy)-1-(2,4-dimethylphenyl)-N-ethyl-6-methoxy-3,4-dihydroisoquinoline-2(1H)-carboxamide] were, in that order, 200 nM, 300 nM, 645 nM, 1000 nM and 400 nM.
The matching figures for `COc1cc2c(cc1OCCc1cc(O)cc(Cl)c1)C(c1ccc(C)cc1C)N(C(=O)NCc1cocn1)CC2` (stereo not drawn) [Compound 3]: above 2000 nM, above 2000 nM, above 1000 nM, above 2000 nM and above 2000 nM.
Turning to `COc1ccc(C2c3cc(OCCc4ccc(OC)c(N)c4)c(OC)cc3CCN2C(=O)NCc2ccon2)c(C)c1` (stereo not drawn) [Compound 21], the IC50 in assay [1] was 100 nM; in assay [2], 200 nM; in assay [3], 900 nM; in assay [4], 200 nM.
In the case of `CCNC(=O)N1CCc2cc(OC)c(OCCc3ccc(OC)c(N)c3)cc2C1c1ccc(C(F)(F)F)cc1C` (stereo not drawn) [Compound 10], the IC50 in assay [1] is 100 nM; in assay [2] it was 200 nM; in the assay with NIH-H358 Cell Line it was 360 nM; in assay [3] it was 900 nM; in assay [4], 300 nM.
Regarding `COc1ccc(C2c3cc(OCCc4ccc(N)c(OC)c4)c(OC)cc3CCN2C(=O)NCC(F)(F)F)c(C)c1` (stereo not drawn) [Compound 45], the IC50 in assay [1] is 200 nM; in assay [2], 300 nM; in assay [3], 1000 nM; in assay [4] it was 600 nM.
On to `COc1ccc(CCOc2cc3c(cc2OC)CCN(C(=O)NCC(F)(F)F)C3c2ccc(C(F)(F)F)cc2C)cc1N` (stereo not drawn) [Compound 25], for which the IC50 is 300 nM in assay [1], 500 nM in assay [2], above 2000 nM in assay [3] and 600 nM in assay [4].
As for `CCNC(=O)N1CCc2cc(OC)c(OCCc3ccc(OC)c([N+](=O)[O-])c3)cc2C1c1ccc(C)cc1C` (stereo not drawn) [Compound 8], the IC50 is 200 nM in assay [1]; 200 nM in assay [2]; above 3000 nM with NIH-H358 Cell Line; 900 nM in assay [3]; 200 nM in assay [4].
With `COc1cc(CCOc2cc3c(cc2OC)CCN(C(=O)NCc2cocn2)C3c2ccc(C)cc2C)ccc1N` (stereo not drawn) [Compound 33], the IC50 is 700 nM in assay [1], 600 nM in assay [2], above 2000 nM in assay [3] and 800 nM in assay [4].
Take `COc1cc(CCOc2cc3c(cc2OC)CCN(C(=O)NCc2cocn2)C3c2ccc(F)cc2C)ccc1N` (stereo not drawn) [Compound 36]: the IC50 in assay [1] is 500 nM; in assay [2], 700 nM; in assay [3], 1700 nM; in assay [4], 900 nM.

The record behind these values is patent US20220380357A1, “TETRAHYDROISOQUINOLINE COMPOUNDS” (ALLINKY BIOPHARMA, priority 2019, published 2022).
